This is an account of results in ChEMBL document CHEMBL3108745, “Synthesis and structure-activity relationship of 3-hydroxypyridine-2-thione-based histone deacetylase inhibitors” (J Med Chem, 2013).

Active and inactive are the calls of the source. The calls are words filed in the database; no cut-off is given here. Some results are limits rather than exact numbers.

In data set [1] the target is Histone deacetylase 1 (Homo sapiens) (UniProt Q13547). The experiment in a line: Inhibition of HDAC1 (unknown origin) expressed in Escherichia coli BL21 (DE3) using GRKacFGC as substrate at 10 uM after 60 mins by SAMDI mass spectrometric analysis relative to control.
Sequence of Histone deacetylase 1 (Homo sapiens) (Q13547 whole entry): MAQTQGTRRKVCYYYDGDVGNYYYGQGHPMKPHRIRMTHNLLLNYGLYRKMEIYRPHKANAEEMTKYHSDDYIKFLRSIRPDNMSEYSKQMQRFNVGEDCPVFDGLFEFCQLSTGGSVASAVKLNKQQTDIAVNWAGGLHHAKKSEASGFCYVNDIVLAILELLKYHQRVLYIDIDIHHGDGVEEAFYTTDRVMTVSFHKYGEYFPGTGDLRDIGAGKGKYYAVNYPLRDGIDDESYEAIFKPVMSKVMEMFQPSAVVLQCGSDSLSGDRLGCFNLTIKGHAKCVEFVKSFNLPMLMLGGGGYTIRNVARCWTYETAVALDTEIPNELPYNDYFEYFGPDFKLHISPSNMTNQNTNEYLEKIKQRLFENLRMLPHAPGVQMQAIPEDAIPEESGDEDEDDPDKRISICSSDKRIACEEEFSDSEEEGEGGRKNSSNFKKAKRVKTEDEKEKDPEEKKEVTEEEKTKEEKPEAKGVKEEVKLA
The next data set addresses Histone deacetylase 2 (Homo sapiens, UniProt Q92769). Nature of the data set: Inhibition of HDAC2 (unknown origin) expressed in Escherichia coli BL21 (DE3) using GRKacYGC as substrate after 60 mins by SAMDI mass spectrometric analysis.
For data set [2], the target named is T1, Interstitial collagenase (Homo sapiens) (UniProt P03956).
T1 sequence (whole entry): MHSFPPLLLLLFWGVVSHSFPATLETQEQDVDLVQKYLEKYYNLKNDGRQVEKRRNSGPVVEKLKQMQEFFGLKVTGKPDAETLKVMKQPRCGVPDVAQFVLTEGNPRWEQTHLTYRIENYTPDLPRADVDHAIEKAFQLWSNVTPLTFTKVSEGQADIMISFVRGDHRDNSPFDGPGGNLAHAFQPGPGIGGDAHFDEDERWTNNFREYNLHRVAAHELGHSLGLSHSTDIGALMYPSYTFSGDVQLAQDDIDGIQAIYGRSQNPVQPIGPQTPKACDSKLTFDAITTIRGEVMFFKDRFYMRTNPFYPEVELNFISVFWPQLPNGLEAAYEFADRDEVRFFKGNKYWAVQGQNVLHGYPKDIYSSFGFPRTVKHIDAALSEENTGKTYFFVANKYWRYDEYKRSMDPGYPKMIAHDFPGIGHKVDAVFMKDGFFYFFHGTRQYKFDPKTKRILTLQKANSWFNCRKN
The experiment in a line: Inhibition of MMP-1 (unknown origin) using omniMMP as fluorogenic substrate at 10 uM preincubated for 30 mins followed by substrate addition measured after 30 mins by fluorescence assay.

Data set [3] is described as follows: Cytotoxicity against human Jurkat gamma1 cells assessed as growth inhibition after 72 hrs by MTS assay. Format: functional, cell-based.
Data set [4] concerns the target T2, Protein deacetylase HDAC6 (Homo sapiens) (UniProt Q9UBN7).
T2 sequence (whole entry): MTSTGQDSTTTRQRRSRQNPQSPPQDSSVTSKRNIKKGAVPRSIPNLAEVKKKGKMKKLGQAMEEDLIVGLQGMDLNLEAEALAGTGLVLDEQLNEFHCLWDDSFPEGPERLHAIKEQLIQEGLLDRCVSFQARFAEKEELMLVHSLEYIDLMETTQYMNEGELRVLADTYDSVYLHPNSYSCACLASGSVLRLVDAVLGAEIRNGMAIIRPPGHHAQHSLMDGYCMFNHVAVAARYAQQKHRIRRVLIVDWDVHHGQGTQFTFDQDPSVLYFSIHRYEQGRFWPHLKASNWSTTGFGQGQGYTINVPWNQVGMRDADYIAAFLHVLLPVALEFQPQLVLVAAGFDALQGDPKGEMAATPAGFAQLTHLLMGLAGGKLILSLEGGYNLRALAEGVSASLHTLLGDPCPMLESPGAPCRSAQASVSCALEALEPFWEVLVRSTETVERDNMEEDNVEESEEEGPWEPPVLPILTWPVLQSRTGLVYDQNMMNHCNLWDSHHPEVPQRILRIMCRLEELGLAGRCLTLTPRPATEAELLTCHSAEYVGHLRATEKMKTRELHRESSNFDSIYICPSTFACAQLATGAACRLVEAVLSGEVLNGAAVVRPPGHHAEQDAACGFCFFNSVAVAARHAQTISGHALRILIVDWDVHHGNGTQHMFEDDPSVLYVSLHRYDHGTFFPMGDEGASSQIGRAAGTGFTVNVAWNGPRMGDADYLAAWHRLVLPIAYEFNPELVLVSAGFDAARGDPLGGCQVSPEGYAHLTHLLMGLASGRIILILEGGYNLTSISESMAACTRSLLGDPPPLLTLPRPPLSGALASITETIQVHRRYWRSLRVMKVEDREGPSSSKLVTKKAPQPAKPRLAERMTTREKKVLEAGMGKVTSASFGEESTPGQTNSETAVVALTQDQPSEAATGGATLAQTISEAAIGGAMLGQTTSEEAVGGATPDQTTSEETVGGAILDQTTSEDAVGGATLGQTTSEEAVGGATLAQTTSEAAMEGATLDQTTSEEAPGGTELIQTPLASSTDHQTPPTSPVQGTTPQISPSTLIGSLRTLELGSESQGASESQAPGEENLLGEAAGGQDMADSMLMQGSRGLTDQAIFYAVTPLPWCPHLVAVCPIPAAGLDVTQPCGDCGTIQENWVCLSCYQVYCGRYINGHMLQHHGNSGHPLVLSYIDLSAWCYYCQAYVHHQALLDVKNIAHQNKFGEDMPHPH
The experiment in a line: Inhibition of HDAC6 in human LNCAP cells assessed as increase in tubulin acetylation at 3.49 to 20 uM after 4 hrs by Western blotting analysis. The data set is classed as cell-based.

Data set [5] has as its target Stromelysin-1 (Homo sapiens) (UniProt P08254). The experiment in a line: Inhibition of MMP-3 (unknown origin) using omniMMP as fluorogenic substrate at 10 uM preincubated for 30 mins followed by substrate addition measured after 30 mins by fluorescence assay.
The next data set deals with Jurkat. Nature of the data set: cells. Format: functional, cell-based. As to conditions: Homo sapiens, 72 h.
A further data set deals with Vero. Nature of the data set: Cytotoxicity against African green monkey Vero cells assessed as growth inhibition after 72 hrs by MTS assay. Format: cell-based. As to conditions: Chlorocebus sabaeus.
Data set [6] concerns the target Matrix metalloproteinase-9 (Homo sapiens) (UniProt P14780). The experiment in a line: Inhibition of MMP-9 (unknown origin) using omniMMP as fluorogenic substrate at 10 uM preincubated for 30 mins followed by substrate addition measured after 30 mins by fluorescence assay.
Data set [7] has as its system LNCaP. The experiment in a line: Potency index, ratio of tubastatin A IC50 to compound IC50 for human LNCAP cells. Format: functional.
A short description of data set [8]: Aqueous solubility of the compound […] at room temperature by UV-vis spectrophotometric analysis. The data set is classed as physicochemical.
Data set [9] deals with 72 kDa type IV collagenase (Homo sapiens) (UniProt P08253). The experiment in a line: Inhibition of MMP-2 (unknown origin) using omniMMP as fluorogenic substrate at 10 uM preincubated for 30 mins followed by substrate addition measured after 30 mins by fluorescence assay.
Sequence of 72 kDa type IV collagenase (Homo sapiens) (P08253 110-660 limits assumed): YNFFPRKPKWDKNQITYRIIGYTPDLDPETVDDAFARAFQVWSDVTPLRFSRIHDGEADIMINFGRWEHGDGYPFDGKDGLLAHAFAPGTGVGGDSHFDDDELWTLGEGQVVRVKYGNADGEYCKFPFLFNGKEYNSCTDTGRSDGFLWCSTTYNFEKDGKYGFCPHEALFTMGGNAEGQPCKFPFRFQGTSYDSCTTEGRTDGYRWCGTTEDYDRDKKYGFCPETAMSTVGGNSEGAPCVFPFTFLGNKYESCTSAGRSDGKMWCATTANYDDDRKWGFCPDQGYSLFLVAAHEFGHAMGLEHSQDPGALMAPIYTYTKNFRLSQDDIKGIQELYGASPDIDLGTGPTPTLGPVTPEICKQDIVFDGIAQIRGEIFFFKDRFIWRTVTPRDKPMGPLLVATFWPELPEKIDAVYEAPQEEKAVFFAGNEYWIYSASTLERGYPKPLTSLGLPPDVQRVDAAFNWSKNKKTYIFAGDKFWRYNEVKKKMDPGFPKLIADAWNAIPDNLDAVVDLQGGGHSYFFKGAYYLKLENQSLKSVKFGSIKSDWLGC
Data set [10] has as its target T3, Matrilysin (Homo sapiens) (UniProt P09237).
T3 sequence (whole entry): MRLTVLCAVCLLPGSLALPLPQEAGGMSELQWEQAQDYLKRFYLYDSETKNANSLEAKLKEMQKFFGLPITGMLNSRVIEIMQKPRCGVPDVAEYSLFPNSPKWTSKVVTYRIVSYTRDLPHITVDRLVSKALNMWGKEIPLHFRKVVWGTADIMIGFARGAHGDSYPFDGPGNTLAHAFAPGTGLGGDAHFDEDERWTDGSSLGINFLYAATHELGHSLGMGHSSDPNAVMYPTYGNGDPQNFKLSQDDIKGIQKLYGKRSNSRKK
Nature of the data set: Inhibition of MMP-7 (unknown origin) using omniMMP as fluorogenic substrate at 10 uM preincubated for 30 mins followed by substrate addition measured after 30 mins by fluorescence assay.

The test system of the next data set is DU-145. Nature of the data set: cells. Format: functional, cell-based. As to conditions: Homo sapiens, DU-145, 72 h.
For data set [11], the target named is Collagenase 3 (Homo sapiens) (UniProt P45452). Nature of the data set: Inhibition of MMP-13 (unknown origin) using omniMMP as fluorogenic substrate at 10 uM preincubated for 30 mins followed by substrate addition measured after 30 mins by fluorescence assay.
Data set [12] relates to LNCaP. Nature of the data set: cells. To be noted: Homo sapiens, 72 h.
Description: Cytotoxicity against androgen-dependent human LNCAP cells assessed as growth inhibition after 72 hrs by MTS assay
The target of data set [13] is Matrix metalloproteinase-14 (Homo sapiens) (UniProt P50281). The experiment in a line: Inhibition of MMP-14 (unknown origin) using omniMMP as fluorogenic substrate at 10 uM preincubated for 30 mins followed by substrate addition measured after 30 mins by fluorescence assay.
A further data set addresses T4, Histone deacetylase 8 (Homo sapiens, UniProt Q9BY41).
T4 sequence (Q9BY41 whole entry): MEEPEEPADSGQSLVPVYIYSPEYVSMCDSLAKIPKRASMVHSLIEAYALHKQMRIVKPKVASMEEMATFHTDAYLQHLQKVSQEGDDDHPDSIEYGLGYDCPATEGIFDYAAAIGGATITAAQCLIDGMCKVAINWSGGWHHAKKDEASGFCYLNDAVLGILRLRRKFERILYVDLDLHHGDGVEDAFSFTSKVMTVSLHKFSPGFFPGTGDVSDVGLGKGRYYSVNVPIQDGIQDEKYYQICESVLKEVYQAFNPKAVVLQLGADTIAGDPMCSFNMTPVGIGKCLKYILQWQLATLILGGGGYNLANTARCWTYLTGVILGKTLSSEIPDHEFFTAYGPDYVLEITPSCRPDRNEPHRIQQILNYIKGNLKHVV
Nature of the data set: Inhibition of HDAC8 catalytic domain (unknown origin) expressed in Escherichia coli BL21 (DE3) using GRKacFGC as substrate after 60 mins by SAMDI mass spectrometric analysis.

Data set [14] concerns the target T5, Protein deacetylase HDAC6 (Homo sapiens, UniProt Q9UBN7).
T5 sequence (Q9UBN7 whole entry): T2 sequence (whole entry)
The experiment in a line: Inhibition of HDAC6 (unknown origin) expressed in Escherichia coli BL21 (DE3) using GRKacYGC as substrate after 60 mins by SAMDI mass spectrometric analysis.

Data set [15] concerns the target T2, Protein deacetylase HDAC6 (Homo sapiens). The experiment in a line: Inhibition of HDAC6 in human LNCAP cells assessed as increase in tubulin acetylation at 5.43 to 20 uM after 4 hrs by Western blotting analysis. The data set is classed as cell-based.

Sequence of Matrix metalloproteinase-9 (Homo sapiens) (P14780 whole entry): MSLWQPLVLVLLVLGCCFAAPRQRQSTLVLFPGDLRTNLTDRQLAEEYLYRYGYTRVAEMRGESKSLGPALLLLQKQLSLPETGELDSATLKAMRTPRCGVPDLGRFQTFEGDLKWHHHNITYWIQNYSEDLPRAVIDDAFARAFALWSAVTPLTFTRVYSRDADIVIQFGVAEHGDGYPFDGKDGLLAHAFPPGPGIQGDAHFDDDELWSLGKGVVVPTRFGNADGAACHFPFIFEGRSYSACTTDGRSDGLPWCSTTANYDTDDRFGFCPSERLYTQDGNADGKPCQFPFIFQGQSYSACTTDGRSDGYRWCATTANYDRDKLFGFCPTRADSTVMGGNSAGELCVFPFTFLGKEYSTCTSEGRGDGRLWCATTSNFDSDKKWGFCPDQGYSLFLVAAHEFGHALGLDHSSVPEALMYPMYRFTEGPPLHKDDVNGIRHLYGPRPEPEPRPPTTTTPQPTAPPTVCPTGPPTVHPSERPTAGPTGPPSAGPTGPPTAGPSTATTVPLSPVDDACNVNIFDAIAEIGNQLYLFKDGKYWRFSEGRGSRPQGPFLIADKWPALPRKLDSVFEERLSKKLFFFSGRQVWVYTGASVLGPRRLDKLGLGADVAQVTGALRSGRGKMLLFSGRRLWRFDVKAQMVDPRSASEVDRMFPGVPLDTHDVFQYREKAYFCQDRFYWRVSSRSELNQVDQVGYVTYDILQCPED
Sequence of Histone deacetylase 2 (Q92769 whole entry): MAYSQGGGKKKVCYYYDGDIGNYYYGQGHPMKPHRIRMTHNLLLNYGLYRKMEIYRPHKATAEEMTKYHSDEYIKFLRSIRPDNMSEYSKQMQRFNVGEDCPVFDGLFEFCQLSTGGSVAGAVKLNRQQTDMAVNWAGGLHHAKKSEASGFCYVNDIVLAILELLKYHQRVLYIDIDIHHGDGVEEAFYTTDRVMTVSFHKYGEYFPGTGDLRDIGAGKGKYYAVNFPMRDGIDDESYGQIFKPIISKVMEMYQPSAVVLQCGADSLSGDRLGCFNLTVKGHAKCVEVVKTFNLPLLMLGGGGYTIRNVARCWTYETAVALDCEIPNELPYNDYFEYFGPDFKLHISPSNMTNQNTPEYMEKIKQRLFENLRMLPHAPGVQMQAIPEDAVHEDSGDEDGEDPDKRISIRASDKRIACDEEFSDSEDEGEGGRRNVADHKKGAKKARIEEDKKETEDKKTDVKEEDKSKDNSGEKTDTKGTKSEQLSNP
Sequence of Stromelysin-1 (Homo sapiens) (P08254 100-477 limits assumed): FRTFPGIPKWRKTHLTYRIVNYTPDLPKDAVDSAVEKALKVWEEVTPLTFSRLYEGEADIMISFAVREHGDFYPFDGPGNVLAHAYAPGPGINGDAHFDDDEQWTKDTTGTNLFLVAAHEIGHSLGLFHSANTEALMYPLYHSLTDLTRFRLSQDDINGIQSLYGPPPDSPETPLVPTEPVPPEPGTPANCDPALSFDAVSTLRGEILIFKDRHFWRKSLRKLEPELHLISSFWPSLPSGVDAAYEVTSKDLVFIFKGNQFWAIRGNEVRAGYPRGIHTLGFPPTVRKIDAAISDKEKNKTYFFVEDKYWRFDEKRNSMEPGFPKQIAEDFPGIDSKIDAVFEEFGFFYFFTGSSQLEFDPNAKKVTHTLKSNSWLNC
Description for DU-145: Cytotoxicity against androgen-independent human DU145 cells assessed as growth inhibition after 72 hrs by MTS assay
Description for Jurkat: Cytotoxicity against human Jurkat cells assessed as growth inhibition after 72 hrs by MTS assay

In data set [1], `N#Cc1cccc(-c2cn(CCCCCn3cccc(O)c3=S)nn2)c1` gave an inhibition of under 20%. Besides, the IC50 on Histone deacetylase 2 was 3.68 µM; in [3], 900 nM; with Jurkat, 3.44 µM; with Vero it was over 20 µM; in the data set with DU-145 it was 5.03 µM; with LNCaP [12], 3.49 µM. Also, the inhibition entry in data set [2], in data set [5], in data set [6], in data set [9], in data set [10] and in data set [13] was “inactive” in each case. For the same molecule, the inhibition entry in data set [4] and in data set [11] was “Active” each time. Besides, the Ratio IC50 with LNCaP [7] turned out to be 3.1. Also, the solubility entry in data set [8] is “soluble”.
Turning to `Oc1cccn(CCCCCn2cc(-c3ccccc3)nn2)c1=S`, the IC50 is 917 nM at Histone deacetylase 8; 5.84 µM against Histone deacetylase 2; 1860 nM in data set [3]; 3.27 µM with Jurkat; 911 nM in [14]; over 20 µM in the data set on Vero. For the same molecule, the IC50 came to 9.33 µM with DU-145 and 5.43 µM in the data set with LNCaP [12]. In data set [1], this molecule returned an inhibition of under 20%. The inhibition entry in data set [2], in data set [5], in [6], in data set [9], in [10] and in data set [13] was “inactive” each time. In the data set with LNCaP [7], the “Ratio IC50” value is on record as 2. The solubility entry in data set [8] is on record as “soluble”. For the same molecule, the inhibition entry in [15] and in data set [11] was “Active” each time.
